Reference: patent US12329755B2, “Bromodomain inhibitors to target therapy-resistant cancer” (University of Tennessee Research Foundation, priority 2019, dated 2025)

Tests used:
[1] = molecular target: T1, GFP-tagged bromodomain of BRG1 (GFP-BRG1 BRD) (Homo sapiens, UniProt P51532); test: nuclear localization of fluorescently tagged BRG1 bromodomain in MT330 GBM cells; format: cell-based; settings: PFI-3 10 or 30 μM; IV-073 5, 10 or 30 μM; compared to DMSO
T1 construct: a fluorescently tagged bromodomain of BRG1 expressed in MT330 GBM cells; expressed in transfected cells; host or cells: MT330 GBM cells
T1 sequence (P51532 1453-1564 limits assumed): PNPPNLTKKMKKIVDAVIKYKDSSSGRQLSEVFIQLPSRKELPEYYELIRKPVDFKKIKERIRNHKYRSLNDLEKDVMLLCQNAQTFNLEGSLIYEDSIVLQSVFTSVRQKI
From the text: FIG. 4 is a series of fluorescence microscopy images showing the effects of Brahma-related gene-1 bromodomain inhibitors (BRIs) on the nuclear localization of a green fluorescent protein (GFP)-tagged bromodomain of Brahma-related gene-1 (GFP-BRG1 BRD).
The effects of PFI-3 and its analogs on the nuclear localization of a fluorescently tagged bromodomain of BRG1 expressed in MT330 GBM cells was studied. In the control samples, the fluorescent bromodomain is localized to the nucleus. However, an inhibitor displaces it from the nucleus and the fluorescence signal markedly decreases because it is degraded in the cytoplasm.

[2] = tested on: X16 BTIC; test: X16 BTIC mouse flank xenografts; format: in vivo, mice; settings: combined with TMZ, 8 weeks
Procedure: FIG. 1F is a graph showing the effect of temozolomide (TMZ) on the tumorigenicity of control (black portion of bars) and Brahma-related gene-1-knock-down (BRG1-KD) (grey portion of bars) brain-tumor initiating cells (BTICs) after injection of 10^6 tumor cells into the flanks of immunodeficient mice. Live animal imaging preformed at weekly intervals. After confirming tumor initiation by live animal imaging, mice were treated with TMZ by interperitoneal (IP) injection (10 milligrams per kilogram (mg/kg) on alternate days). The reduction in tumor volume was calculated at 1 week (left) and 2 weeks (right) post-treatment. *p≤0.05.
FIG. 5 is a graph showing the effect of Brahma-related gene-1 bromodomain inhibitors (BRIs), PFI-3 and the PFI-3 analogs (PAs) IV-073, IV-077, and IV-085, on the anticancer activity of temozolomide (TMZ) on brain-tumor initiating-cell (BTIC) tumor growth. BTICs (10^6 cells) from X16 glioblastoma were injected into the flanks of immunodeficient mice. After confirming tumor initiation by live animal imaging, mice were treated with PFI-3 or a PA (0.5 microgram per mouse (μg/mouse)) and TMZ (0.25 mg/mouse) by intrarperitoneal (IP) injection on alternate days. The reduction in tumor volume was calculated at 2 weeks post-treatment.
BRG1 loss sensitizes BTICs to TMZ in vitro and in vivo: Although the alkylating agent TMZ is front-line chemotherapy in the treatment of GBM, a significant clinical problem is intrinsic or adaptive resistance to TMZ.^63 To evaluate TMZ sensitivity, GBM6 or X16 BTICs were treated with 300 μM or 500 μM TMZ, and cell proliferation was determined. […] Since BRG1 has been implicated in DNA double-strand break repair,^65-67 it was hypothesized that BRG1 loss in BTICs would sensitize BTICs to TMZ. […] To determine whether BRG1-KD sensitized BTICs to TMZ in vivo, animal studies were conducted with control (scrambled shRNA) and BRG1-KD X16 BTICs injected into the flanks of NSG mice. After tumor initiation was confirmed by live animal imaging, mice were treated with TMZ. […] Thus, despite X16 BRG1-KD BTICs producing larger tumors, the tumors were sensitized to TMZ therapy.
In contrast, all mice with single drug treatment had to be euthanized because the tumors had reached […] by 3 weeks post-treatment.

[3] = tested on: GBM cells; test: survival of mice after intracranial injection of GBM cells; format: in vivo; settings: combination with TMZ, intraperitoneal, 10 mg/kg body weight
Procedure: FIG. 6 is a graph showing the survival curves (percent survival versus days after treatment) of mice after intracranial injection of glioblastoma (GBM) cells and intraperitoneal injection of temozolomide (TMZ) or combinations of TMZ and a Brahma-related gene-1 bromodomain inhibitors (BRIs): PFI-3 or one of the presently disclosed PFI-3 analogs (PAs) IV-073 or IV-085. Five mice per group were treated with TMZ with or without the BRI (10 milligrams per kilogram (mg/kg) body weight.
TMZ with or without a BRI was also tested in mice after intercranial injection of GBM cells.

[4] = tested on: GBM cells; test: overall statements on GBM cell death and sensitization to TMZ; format: cell-based
From the text: The syntheses of two exemplary PA BRIs, referred to herein as YH-IV-073 (or IV-073), and YH-IV-077 (or IV-077), as well as of PFI-3 (also referred to herein as YH-IV-081), are shown in Scheme 2, below. As shown in Scheme 2, commercially available tert-butyloxycarbonyl (BOC)-protected amine 1 is contacted with 2-bromopyridine (2) to form intermediate 3. The protecting group can be removed (e.g., via hydrolysis) to give the corresponding amine 4. Compound 4 can be coupled with a carboxylic acid (5, 6, or 7) to afford target YH-IV-073, YH-IV-077 and YH-IV-081, respectively. […] These analogs will provide greater insight into the importance of substitution of the A ring.
The synthetic route shown in Scheme 3, below, was used to synthesize new analogs with different substituents in the 2-position of the A-ring, such as YH-IV-085. As shown in Scheme 3, a commercially available 1-phenylprop-2-yn-1-one (e.g., 8 or 9) can be reacted with BOC-protected amine compound 1 to afford a BOC-protected intermediate (e.g., 10 or 11), which can be hydrolyzed to provide corresponding deprotected intermediate (12 or 13). The intermediates can be coupled with the 2-bromopyridine (2) to yield target compounds (e.g., 14 or YH-IV-085), respectively. YH-IV-085 is believed to be the first PFI-3 analog prepared without a 2-hydroxy moiety in the A-ring.

[5] = tested on: X16 BTICs; settings: cited from earlier work
[6] = tested on: X10 BTICs; settings: cited from earlier work
[7] = tested on: GFAP; settings: X16 BTICs; cited from earlier work
[8] = tested on: cancer cell lines (lung, synovial sarcoma, leukemia, and rhabdoid tumor cells); settings: panel of cancer cell lines; cited from earlier work
[9] = tested on: BTICs; settings: cited from earlier work
[10] = tested on: embryonic stem cell; settings: cited from earlier work

O=C(/C=C/N1C[C@H]2C[C@@H]1CN2c1ccccn1)c1ccccc1O [PFI-3, (E)-1-(2-hydroxyphenyl)-3-((1R,4R)-5-(pyridin-2-yl)-2,5-diazabicyclo[2.2.1]heptan-2-yl)prop-2-en-1-one]
displacement of the BRG1 bromodomain from the nucleus [1]: displaces the BRG1 bromodomain from the nucleus
tumors after treatment for 8 weeks [2]: less dramatic effect
animal survival [3]: enhanced animal survival
sensitizing GBM cells to DNA alkylation by TMZ ([4]; also in cells resistant to DNA alkylation agents): capable of sensitizing GBM cells
GBM cell death ([4]; used alone): do not cause GBM cell death
sensitization to Carmustine ([5]; X16 BTICs, PFI-3 treatment): sensitized
effect on X16 BTIC proliferation ([5]; combination of TMZ and PFI-3, versus either agent alone): markedly greater effect on X16 BTIC proliferation than either agent alone
sensitization to Carmustine ([6]; X10 BTICs, PFI-3 treatment): sensitized
effect on X10 BTIC proliferation ([6]; combination of PFI-3 and TMZ): marked effect on X10 BTIC proliferation
GFAP protein expression [7]: upregulated GFAP protein expression
proliferation or tumorgenicity [8]: not to inhibit the proliferation or tumorgenicity
effect on BTIC proliferation ([9]; PFI-3 alone): little effect on BTIC proliferation
stemness of BTICs [9]: inhibits the stemness of BTICs
sensitization of BTICs to DNA alkylating agents ([9]; in vitro): sensitizes BTICs to DNA alkylating agents
embryonic stem cell phenotype [10]: inhibits the embryonic stem cell phenotype
